Columns and labels:
human PARG [1] = target: human PARG (Homo sapiens, UniProt Q86W56, E756N); experiment: fluorescence polarization direct binding
human PARG [2] = target: human PARG (Homo sapiens, UniProt Q86W56, E755N); experiment: fluorescence polarization direct binding
Chain of human PARG (Homo sapiens, UniProt Q86W56, E755N) (Q86W56 whole entry E755N): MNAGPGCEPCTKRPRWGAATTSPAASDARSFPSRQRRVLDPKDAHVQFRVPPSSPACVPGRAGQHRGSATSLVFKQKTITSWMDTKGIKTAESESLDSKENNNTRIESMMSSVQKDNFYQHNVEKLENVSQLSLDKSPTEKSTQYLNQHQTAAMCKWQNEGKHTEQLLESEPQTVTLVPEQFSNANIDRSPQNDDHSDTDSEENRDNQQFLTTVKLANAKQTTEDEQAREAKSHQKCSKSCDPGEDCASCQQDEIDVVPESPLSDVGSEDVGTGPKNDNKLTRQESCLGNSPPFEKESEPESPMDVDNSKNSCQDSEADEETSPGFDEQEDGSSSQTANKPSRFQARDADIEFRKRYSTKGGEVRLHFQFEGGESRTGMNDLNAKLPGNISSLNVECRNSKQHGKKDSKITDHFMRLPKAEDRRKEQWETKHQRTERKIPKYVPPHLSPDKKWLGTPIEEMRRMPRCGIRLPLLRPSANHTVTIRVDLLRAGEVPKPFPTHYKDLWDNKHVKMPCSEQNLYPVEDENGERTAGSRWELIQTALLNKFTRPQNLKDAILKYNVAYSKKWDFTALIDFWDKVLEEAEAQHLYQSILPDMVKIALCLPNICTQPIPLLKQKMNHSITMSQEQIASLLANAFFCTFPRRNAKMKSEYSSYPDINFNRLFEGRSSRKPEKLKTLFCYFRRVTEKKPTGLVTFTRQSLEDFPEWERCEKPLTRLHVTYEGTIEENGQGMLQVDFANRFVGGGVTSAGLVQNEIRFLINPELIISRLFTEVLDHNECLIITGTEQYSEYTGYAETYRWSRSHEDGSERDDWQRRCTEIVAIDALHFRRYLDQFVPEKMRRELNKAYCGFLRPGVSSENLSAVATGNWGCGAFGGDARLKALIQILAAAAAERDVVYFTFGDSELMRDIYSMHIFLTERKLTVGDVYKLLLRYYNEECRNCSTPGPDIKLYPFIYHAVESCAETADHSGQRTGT

Chain of human PARG (Homo sapiens, UniProt Q86W56, E756N) (Q86W56 whole entry E756N): as the sequence (Q86W56 whole entry E755N) above, with N755E, E756N counted along it

## Cy3 ADP-ribose dimer [compound 22]
Human PARG [1]
  Kd: 83 ± 7 nM
Human PARG [2]
  Kd: 208 ± 14 nM
